Measurements reported in patent publication US5098927A, “Antiretroviral agent, method of use thereas, and method of preparation” (Fujisawa Pharmaceutical Co., Ltd., priority 1989, dated 1992).
Values belong to the compound of their own block, whether it stands above or below them.

Key:
[1] = tested on: Type II collagen-induced arthritis; assay: Type II collagen-induced arthritis in rats; format: in vivo, rat (female Lewis); settings: oral, means ± SEM
Protocol: (2R, 3S, 4R, 5R)-3,4-dihydroxy-5-hydroxymethyl-2-pyrrolidinesufonic acid (compound (II'))
Inbred 7-week-old female Lewis rats were handled under specific pathogen-free conditions and acclimated to the new environment for a week before use.
Type II bovine collagen was dissolved at 4° C. in 0.01M acetic acid at a concentration of 2 mg/ml. The solution was emulsified in an equal volume of incomplete Freund's adjuvant. Rats were anesthetized with sodium pentobarbital (30 mg/kg, i.p.) and the backs of rats were shaved. Under anesthesia, each rat was immunized with 0.8 ml of the cold emulsion by several intradermal injections on the depilated back and one or two injections into the base of the tail.
The test compound was dissolved in distilled water and administered orally at various doses in 5 ml/kg. From the day of immunization, the test compound or vehicle was administered once a day for 2 weeks.
The extent of arthritis was expressed as the increase in paw volume of each rat. The volume of both hind legs below the knee joint was measured with a plethysmometer. The rats were immunized on day 0 and the paw volume was measured on day 12 and 14. Mean increases in the paw volume of each group was calculated and the result was expressed as means ± SEM. Each group consisted of 10 rats.

[2] = tested on: cytopathic effect of HIV: LAV-1-infected CEM cells / Molt4 (clone 8) cells; assay: Inhibitory effect on the cytopathic effect of HIV (syncytium/giant cell formation); format: cell-based, human immunodeficiency virus (LAV-1)
Protocol: The inhibitory effect of the compound (I) on the cytopathic effect (syncytium formation) by HIV infection on T lymphocytes was evaluated in the following manner.
(1) CEM cells infected with LAV-1 were washed twice with RPMI 1640 medium and a cell suspension (1 × 10^6 cells/ml) was prepared using the same medium. The suspension was distributed in 100-μl portions into culture tubes (16 × 125 mm). Complete medium^*1 containing the compound (I) in several specified concentrations was added to the culture tubes and incubation was performed in the presence of 5% carbon dioxide a 37° C. for 3 days.
The LAV-1-infected CEM cells thus cultured were washed twice with RPMI 1640 medium and then adjusted to 4 × 10^5 cells/ml with the complete medium.
[*1: RPMI 1640 medium supplemented with 20% fetal calf serum, 2.5 mM glutamine, kanamycin (100 μg/ml) and penicillin G (100 units/ml)]
(2) Molt4 (clone 8) cells were washed twice with RPMI 1640 medium and then adjusted to 2 × 10^6 cells/ml with the complete medium.
(3) The LAV-1-infected CEM cell suspension in complete medium prepared in (1) and the Molt4 (clone 8) cell suspension in complete medium prepared in (2) were respectively distributed in 50-μl portions into 96 well flat bottomed tissue culture plate, followed by further addition of 50 μl of each solution of the compound (I) in complete medium to each well, which was, in advance, prepared to give a final concentration of compound (I) of 100 μg/ml, 50 μg/ml, 20 μg/ml or 10 μg/ml (the final volume in each well being 150 μl).
(4) The above tissue culture plate was incubated at 37° C. in the presence of 5% carbon dioxide for 16 hours and then the giant cells resulting from cytopathic alteration of Molt4 (clone 8) cells were counted within the visual field of a microscope (magnification × 400).
The compound (II) was also evaluated for the same inhibitory effect (the α isomer, i.e. the compound (II'), was selected as a representative of the compound (II)).

[3] = tested on: Friend leukemia virus; assay: Inhibitory effect on the induction of splenomegaly by Friend leukemia virus in mice; format: in vivo, mouse (male C3H/HeN); settings: for Spleen weight / Inhibition: day 14; for Inhibition: percent inhibition of infection from spleen weight; for inhibition of splenomegaly in mice (in words): Friend leukemia virus
Protocol: Male C3H/HeN mice (5 weeks old) were intraperitoneally inoculated with 3.1 × 10^1 MID50 /mouse of Friend leukemia virus (in 0.2 ml) and then, after this infection procedure, the active ingredient [compound (I) or compound (II)] of the present invention was administered at a specified dose in the form of a solution in sterile physiological saline by the route specified below (Experiment 1 or 2). On day 14 after infection, the mice were sacrificed by exsanguination and the spleen weight (in mg) was measured for evaluating the inhibitory effect of the compound (I) and (II) on the induction of splenomegaly. In each experiment, the control group consisted of mice given no active ingredient after infection with Friend leukemia virus. The percent inhibition of infection was calculated as follows: [formula] The compound (I) was intravenously administered 4 hours after infection (day 0) and then twice daily on days 1 to 4 and days 7 to 11 (19 times in total). The compound (II) was orally administered 1 hour after infection and then according to the same schedule as in Experiment 1. The compound (II) used was in the α form, namely the compound (II'). Friend leukemia virus used in the above test is known to be a lymphotropic retrovirous, like HIV. Since the extent of splenomegaly in mice induced by said virus is proportional to the proliferation of said virus, the inhibitory effect of an agent on the proliferation of Friend leukemia virus can be estimated by assaying its inhibitory effect on the splenomegaly in mice.

[4] = tested on: Friend leukemia virus; assay: as above; format: in vivo, mouse (male C3H/HeN); settings: combination with azidothymidine (AZT); no data given
[5] = Stability and hygroscopicity; format: physicochemical; settings: compared with the pyrroline compound (I)
[6] = tested on: inflammation; assay: Anti-inflammatory activity (general statement); settings: stated in words
[7] = Acute toxicity testing in mice; format: in vivo, mouse (ddY, female)
Protocol: The compound (I) was administered to mice (ddY strain, female, 5 weeks old) at a dose of 1 g per kg body weight by intravenous injection.

[8] = tested on: α-glucosidase; settings: stated without data; cited from earlier work
[9] = tested on: immunosuppressive factors; settings: stated without data; cited from earlier work

Structure (SMILES): O=S(=O)(O)[C@H]1N[C@H](CO)[C@@H](O)[C@@H]1O [Compound (II'), (2R, 3S, 4R, 5R)-3,4-dihydroxy-5-hydroxymethyl-2-pyrrolidinesulfonic acid]
- Paw volume change ([1]; 10 mg/kg once a day, 12 day, control 0.29 ± 0.13, normal 0.03 ± 0.07): 0.16 ± 0.15 mL
- Paw volume change ([1]; 10 mg/kg once a day, 14 day, control 0.41 ± 0.24, normal 0.05 ± 0.03): 0.27 ± 0.21 mL
- Paw volume change ([1]; 32 mg/kg once a day, 12 day, control 0.29 ± 0.13, normal 0.03 ± 0.07): 0.13 ± 0.10 mL
- Paw volume change ([1]; 32 mg/kg once a day, 14 day, control 0.41 ± 0.24, normal 0.05 ± 0.03): 0.19 ± 0.22 mL
- Paw volume change ([1]; 100 mg/kg once a day, 12 day, control 0.29 ± 0.13, normal 0.03 ± 0.07): 0.08 ± 0.11 mL
- Paw volume change ([1]; 100 mg/kg once a day, 14 day, control 0.41 ± 0.24, normal 0.05 ± 0.03): 0.06 ± 0.04 mL
- Number of giant cells ([2]; compound (II') 1 μg/ml, control (0 μg/ml) 173.0 ± 2.0, mean ± SD): 119.5 ± 16.5
- Number of giant cells ([2]; compound (II') 3 μg/ml, control (0 μg/ml) 173.0 ± 2.0, mean ± SD): 106.0 ± 19
- Number of giant cells ([2]; compound (II') 10 μg/ml, control (0 μg/ml) 173.0 ± 2.0, mean ± SD): 89.0 ± 10
- Number of giant cells ([2]; compound (II') 30 μg/ml, control (0 μg/ml) 173.0 ± 2.0, mean ± SD): 53.5 ± 8.5
- Number of giant cells ([2]; compound (II') 100 μg/ml, control (0 μg/ml) 173.0 ± 2.0, mean ± SD): 26.5 ± 3.5
- Spleen weight ([3]; oral, 10 mg/kg/administration, first 1 hour after infection, control 1073 ± 26, normal 79 ± 2 mg, mean of 8 mice): 875 ± 71 mg
- Inhibition ([3]; oral, 10 mg/kg/administration, first 1 hour after infection): 20%

- stability [5]: very stable
Structure (SMILES): O=S(=O)(O)C1N[C@H](CO)[C@@H](O)[C@@H]1O (some centres unmarked) [(II)]
- potentiation of azidothymidine (AZT) in inhibiting splenomegaly in mice [4]: can potentiate azidothymidine (AZT) in inhibiting such splenomegaly in mice
- hygroscopicity [5]: less hygroscopic than the pyrroline compound (I)
- anti-inflammatory activity [6]: has anti-inflammatory activity
- inhibition of splenomegaly in mice (in words) [3]: can inhibit such splenomegally in mice

Structure (SMILES): OC[C@H]1N=C[C@@H](O)[C@@H]1O [Compound (I), (3R, 4R, 5R)-3,4-dihydroxy-5-hydroxymethyl-1-pyrroline]
- body weight ([7]; 1 g per kg body weight, intravenous injection): body weight gains
- survival ([7]; mouse, in vivo, iv): The mice survived
- potentiation of azidothymidine (AZT) in inhibiting splenomegaly in mice [4]: can potentiate azidothymidine (AZT) in inhibiting such splenomegaly in mice
- Number of giant cells ([2]; compound (I) 10 μg/ml, 16 h, control (0 μg/ml) 260.5, mean of two countings): 246.5
- Number of giant cells ([2]; compound (I) 20 μg/ml, 16 h, control (0 μg/ml) 260.5, mean of two countings): 147.5
- Number of giant cells ([2]; compound (I) 50 μg/ml, 16 h, control (0 μg/ml) 260.5, mean of two countings): 44.5
- Number of giant cells ([2]; compound (I) 100 μg/ml, 16 h, control (0 μg/ml) 260.5, mean of two countings): 9.5
- α-glucosidase inhibiting activity [8]: α-glucosidase inhibiting activity
- activity against immunosuppressive factors [9]: activity against immunosuppressive factors
- inhibition of splenomegaly in mice (in words) [3]: can inhibit such splenomegally in mice
- Spleen weight ([3]; intravenous, 20 mg/kg/administration, 19 times, control 1149 ± 220, normal 92 ± 3 mg, mean of 10 mice): 840 ± 421 mg
- Inhibition ([3]; intravenous, 20 mg/kg/administration, 19 times): 29%
- Spleen weight ([3]; intravenous, 80 mg/kg/administration, 19 times, control 1149 ± 220, normal 92 ± 3 mg, mean of 10 mice): 667 ± 241 mg
- Inhibition ([3]; intravenous, 80 mg/kg/administration, 19 times): 46%
